Data from patent US20240246977A1, “DEGRADATION OF BRUTON'S TYROSINE KINASE (BTK) BY CONJUGATION OF BTK INHIBITORS WITH E3 LIGASE LIGAND AND METHOD OF USE” (BeiGene Switzerland GmbH, priority 2021, published 2024).
Read-outs that look alike come from different tables or passages of the source.

Key:
HEK-293 cells = experiment: HEK-293 cytotoxicity detection (CellTiter-Glo); assay type: cell-based; details: 72 h incubation, CellTiter-Glo luminescence, read-out: HEK293
In short: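 HEK-293 cells exposed 72 h to 8 compounds doses (4-fold dilutions, top stock 5 mM at 500×) in 0.2% DMSO. Viability by CellTiter-Glo luminescence; inhibition normalised to DMSO high control and low control, IC50 from four-parameter curve fit.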

BTK = BTK (Homo sapiens, UniProt Q06187); experiment: BTK cell degradation in TMD-8 cells, HTRF assay; assay type: cell-based; set-up: endogenous in cells; host or cells: TMD-8 cells; details: 6 h treatment, IC50 (DC50) of BTK degradation
Chain of BTK (Q06187 whole entry): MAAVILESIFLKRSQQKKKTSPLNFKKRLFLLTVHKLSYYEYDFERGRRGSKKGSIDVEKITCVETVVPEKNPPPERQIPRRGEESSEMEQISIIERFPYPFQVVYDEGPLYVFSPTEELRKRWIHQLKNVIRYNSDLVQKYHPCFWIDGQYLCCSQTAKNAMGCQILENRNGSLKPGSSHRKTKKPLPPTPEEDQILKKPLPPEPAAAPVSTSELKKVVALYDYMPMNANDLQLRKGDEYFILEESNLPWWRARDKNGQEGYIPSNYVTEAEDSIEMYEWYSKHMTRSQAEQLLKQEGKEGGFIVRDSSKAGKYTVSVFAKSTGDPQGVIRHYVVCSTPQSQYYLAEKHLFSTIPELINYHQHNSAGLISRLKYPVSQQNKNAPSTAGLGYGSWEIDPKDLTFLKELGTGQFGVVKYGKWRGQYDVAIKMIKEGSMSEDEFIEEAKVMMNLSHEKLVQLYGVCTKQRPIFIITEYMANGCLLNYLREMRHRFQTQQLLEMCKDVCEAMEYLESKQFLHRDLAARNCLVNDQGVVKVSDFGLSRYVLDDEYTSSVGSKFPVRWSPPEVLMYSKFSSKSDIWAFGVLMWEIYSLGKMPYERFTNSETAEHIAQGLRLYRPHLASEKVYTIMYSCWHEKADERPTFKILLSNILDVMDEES
In short: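 BTK levels read by HTRF in lysates of TMD-8 cells exposed to compounds for 6 h, eight concentrations at 6-fold steps in 0.2% DMSO. Percent degradation versus DMSO and low controls was fitted with a four-parameter equation to give DC50; Dmax is maximal degradation.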

Row | DC50 (BTK) | SMILES | IC50 (HEK-293 cells; Homo sapiens, 72 h) | IC50 (HEK-293 cells)
1 | 2.56 nM | Cc1cccc(NC(=O)c2ccc(-c3nn4c(c3C(N)=O)Nc3ccc(N5CCN(C6CC(c7ccc([C@@H]8CCC(=O)NC8=O)cc7)C6)CC5)cc3CC4)c(F)c2C)n1 (stereo partly drawn) [Example B68, (S)-7-(4-(3-(4-(2,6-dioxopiperidin-3-yl)phenyl)cyclobutyl)piperazin-1-yl)-2-(2-fluoro-3-methyl-4-((6-methylpyridin-2-yl)carbamoyl)phenyl)-9,10-dihydro-4H-benzo[d]pyrazolo[1,5-a][1,3]diazepine-3-carboxamide] | 105 nM | –
2 | 7.15 nM | Cc1cccc(NC(=O)c2ccc(-c3nn4c(c3C(N)=O)Nc3ccc(N5CCN(C[C@H]6CCN(c7ccc(N8CCC(=O)NC8=O)cc7)C6)CC5)cc3CC4)c(F)c2C)n1 [Example B74, (R)-7-(4-((1-(4-(2,4-dioxotetrahydropyrimidin-1(2H)-yl)phenyl)pyrrolidin-3-yl)methyl)piperazin-1-yl)-2-(2-fluoro-3-methyl-4-((6-methylpyridin-2-yl)carbamoyl)phenyl)-9,10-dihydro-4H-benzo[d]pyrazolo[1,5-a][1,3]diazepine-3-carboxamide] | > 10000 nM | –
3 | 3.82 nM | COc1ccccc1C(=O)NC(C)c1ccc(-c2nn3c(c2C(N)=O)Nc2ccc(N4CCN(CC5CCN(c6ccc(N7CCC(=O)NC7=O)cc6)CC5)CC4)cc2CC3)cc1 (stereo not shown) [Example C5, 7-(4-((1-(4-(2,4-dioxotetrahydropyrimidin-1(2H)-yl)phenyl)piperidin-4-yl)methyl)piperazin-1-yl)-2-(4-(1-(2-methoxybenzamido)ethyl)phenyl)-9,10-dihydro-4H-benzo[d]pyrazolo[1,5-a][1,3]diazepine-3-carboxamide] | > 10000 nM | –
4 | 8.52 nM | COc1ccc(C)cc1C(=O)NCc1ccc(-c2nn3c(c2C(N)=O)Nc2ccc(N4CCN(CC5CCN(c6ccc(N7CCC(=O)NC7=O)cc6)CC5)CC4)cc2CC3)cc1C [Example C39, 7-(4-((1-(4-(2,4-dioxotetrahydropyrimidin-1(2H)-yl)phenyl)piperidin-4-yl)methyl)piperazin-1-yl)-2-(4-((2-methoxy-5-methylbenzamido)methyl)-3-methylphenyl)-9,10-dihydro-4H-benzo[d]pyrazolo[1,5-a][1,3]diazepine-3-carboxamide] | > 10000 nM | –
5 | 2.72 nM | Cc1c(C(=O)Nc2cscn2)ccc(-c2nn3c(c2C(N)=O)Nc2ccc(N4CCN(CC5CCN(c6cccc(CN7CCC(=O)NC7=O)c6)CC5)CC4)cc2CC3)c1F [Example B99, 7-(4-((1-(3-((2,4-dioxotetrahydropyrimidin-1(2H)-yl)methyl)phenyl)piperidin-4-yl)methyl)piperazin-1-yl)-2-(2-fluoro-3-methyl-4-(thiazol-4-ylcarbamoyl)phenyl)-9,10-dihydro-4H-benzo[d]pyrazolo[1,5-a][1,3]diazepine-3-carboxamide] | > 10000 nM | –
6 | 0.338 nM | COc1cc(C(=O)Nc2cccc(C)n2)ccc1-c1nn2c(c1C(N)=O)Nc1ccc(N3CCN(CC4CCN(c5ccc(N6CCC(=O)NC6=O)cc5)CC4)CC3)cc1CC2 [Example B22, 7-(4-((1-(4-(2,4-dioxotetrahydropyrimidin-1(2H)-yl)phenyl)piperidin-4-yl)methyl)piperazin-1-yl)-2-(2-methoxy-4-((6-methylpyridin-2-yl)carbamoyl)phenyl)-9,10-dihydro-4H-benzo[d]pyrazolo[1,5-a][1,3]diazepine-3-carboxamide] | > 10000 nM | –
7 | 54.2 nM | Cc1cc(-c2nn3c(c2C(N)=O)Nc2ccc(N4CCN(CC5CCN(c6ccc(N7CCC(=O)NC7=O)cc6)CC5)CC4)cc2CC3)ccc1CNC(=O)c1ccn(C(C)(C)C)n1 [Example C9, 2-(4-((1-(tert-butyl)-1H-pyrazole-3-carboxamido)methyl)-3-methylphenyl)-7-(4-((1-(4-(2,4-dioxotetrahydropyrimidin-1(2H)-yl)phenyl)piperidin-4-yl)methyl)piperazin-1-yl)-9,10-dihydro-4H-benzo[d]pyrazolo[1,5-a][1,3]diazepine-3-carboxamide] | > 10000 nM | –
8 | 4.64 nM | COc1ccccc1C(=O)NCc1ccc(-c2nn3c(c2C(N)=O)Nc2ccc(N4CCN(CC5CCN(c6ccc(N7CCC(=O)NC7=O)cc6)CC5)CC4)cc2CC3)c(F)c1F [Example C47, 2-(2,3-difluoro-4-((2-methoxybenzamido)methyl)phenyl)-7-(4-((1-(4-(2,4-dioxotetrahydropyrimidin-1(2H)-yl)phenyl)piperidin-4-yl)methyl)piperazin-1-yl)-9,10-dihydro-4H-benzo[d]pyrazolo[1,5-a] [1,3]diazepine-3-carboxamide] | 222 nM | –
9 | 10.5 nM | COc1c(F)cccc1C(=O)NCc1ccc(-c2nn3c(c2C(N)=O)Nc2ccc(N4CCN(CC5CCN(c6ccc(N7CCC(=O)NC7=O)cc6)CC5)CC4)cc2CC3)cc1C [Example C40, 7-(4-((1-(4-(2,4-dioxotetrahydropyrimidin-1(2H)-yl)phenyl)piperidin-4-yl)methyl)piperazin-1-yl)-2-(4-((3-fluoro-2-methoxybenzamido)methyl)-3-methylphenyl)-9,10-dihydro-4H-benzo[d]pyrazolo[1,5-a][1,3]diazepine-3-carboxamide] | > 10000 nM | –
10 | 56.4 nM | COc1ccccc1C(=O)NCc1ccc(-c2nn3c(c2C(N)=O)Nc2ccc(N4CCN(CC5CCN(c6ccc(N7CCC(=O)NC7=O)cc6)CC5)CC4)cc2CC3)cc1C(F)(F)F [Example C45, 7-(4-((1-(4-(2,4-dioxotetrahydropyrimidin-1(2H)-yl)phenyl)piperidin-4-yl)methyl)piperazin-1-yl)-2-(4-((2-methoxybenzamido)methyl)-3-(trifluoromethyl)phenyl)-9,10-dihydro-4H-benzo[d]pyrazolo[1,5-a][1,3]diazepine-3-carboxamide] | > 10000 nM | –
11 | 10.6 nM | Cc1cccc(NC(=O)c2ncc(-c3nn4c(c3C(N)=O)Nc3ccc(N5CCN(C6CC(c7ccc(C8CCC(=O)NC8=O)cc7)C6)CC5)cc3CC4)cc2C)n1 (stereo in doubt) [Example B35, (S)-7-(4-(3-(4-(2,6-dioxopiperidin-3-yl)phenyl)cyclobutyl)piperazin-1-yl)-2-(5-methyl-6-((6-methylpyridin-2-yl)carbamoyl)pyridin-3-yl)-9,10-dihydro-4H-benzo[d]pyrazolo[1,5-a][1,3]diazepine-3-carboxamide] | – | 97.4 nM
12 | 3.75 nM | Cc1cccc(NC(=O)c2ccc(-c3nn4c(c3C(N)=O)Nc3ccc(N5CCN(CC6CCN(c7ccc(N8CCC(=O)NC8=O)c(C)c7)CC6)CC5)cc3CC4)c(F)c2C)n1 [Example B54, 7-(4-((1-(4-(2,4-dioxotetrahydropyrimidin-1(2H)-yl)-3-methylphenyl)piperidin-4-yl)methyl)piperazin-1-yl)-2-(2-fluoro-3-methyl-4-((6-methylpyridin-2-yl)carbamoyl)phenyl)-9,10-dihydro-4H-benzo[d]pyrazolo[1,5-a][1,3]diazepine-3-carboxamide] | > 10000 nM | –
13 | 2.53 nM | Cc1cccc(NC(=O)c2cc(F)c(-c3nn4c(c3C(N)=O)Nc3ccc(N5CCN(CC6CCN(c7ccc(N8CCC(=O)NC8=O)cc7)CC6)CC5)cc3CC4)cc2C)n1 [Example B30, 7-(4-((1-(4-(2,4-dioxotetrahydropyrimidin-1(2H)-yl)phenyl)piperidin-4-yl)methyl)piperazin-1-yl)-2-(2-fluoro-5-methyl-4-((6-methylpyridin-2-yl)carbamoyl)phenyl)-9,10-dihydro-4H-benzo[d]pyrazolo[1,5-a][1,3]diazepine-3-carboxamide] | > 10000 nM | –
14 | 1.1 nM | COc1ccncc1C(=O)NCc1ccc(-c2nn3c(c2C(N)=O)Nc2ccc(N4CCN(CC5CCN(c6ccc(N7CCC(=O)NC7=O)cc6)CC5)CC4)cc2CC3)cc1C [Example C35, 7-(4-((1-(4-(2,4-dioxotetrahydropyrimidin-1(2H)-yl)phenyl)piperidin-4-yl)methyl)piperazin-1-yl)-2-(4-((4-methoxynicotinamido)methyl)-3-methylphenyl)-9,10-dihydro-4H-benzo[d]pyrazolo[1,5-a][1,3]diazepine-3-carboxamide] | > 10000 nM | –
15 | 1.45 nM | NC(=O)c1c(-c2ccc(Oc3ccccc3)cc2)nn2c1Nc1ccc(NC3CCN(CC4CCN(c5cc6c(cc5F)C(=O)N(C5CCC(=O)NC5=O)C6=O)CC4)CC3)cc1CC2 (stereo not shown) [Example A5, 7-((1-((1-(2-(2,6-dioxopiperidin-3-yl)-6-fluoro-1,3-dioxoisoindolin-5-yl)piperidin-4-yl)methyl)piperidin-4-yl)amino)-2-(4-phenoxyphenyl)-9,10-dihydro-4H-benzo[d]pyrazolo[1,5-a][1,3]diazepine-3-carboxamide] | 83.3 nM | –
16 | 2.32 nM | Cc1cccc(NC(=O)c2ccc(-c3nn4c(c3C(N)=O)Nc3ccc(N5CCN(CCc6cc(F)c([C@H]7CCC(=O)NC7=O)c(F)c6)CC5)cc3CC4)c(F)c2C)n1 [Example B63, (R)-7-(4-(4-(2,6-dioxopiperidin-3-yl)-3,5-difluorophenethyl)piperazin-1-yl)-2-(2-fluoro-3-methyl-4-((6-methylpyridin-2-yl)carbamoyl)phenyl)-9,10-dihydro-4H-benzo[d]pyrazolo[1,5-a][1,3]diazepine-3-carboxamide] | > 10000 nM | –
17 | 15 nM | Cc1c(-c2nc(-c3ccccn3)no2)ccc(-c2nn3c(c2C(N)=O)Nc2ccc(N4CCN(CC5CCN(c6ccc(N7CCC(=O)NC7=O)cc6)CC5)CC4)cc2CC3)c1F [Example B46, 7-(4-((1-(4-(2,4-dioxotetrahydropyrimidin-1(2H)-yl)phenyl)piperidin-4-yl)methyl)piperazin-1-yl)-2-(2-fluoro-3-methyl-4-(3-(pyridin-2-yl)-1,2,4-oxadiazol-5-yl)phenyl)-9,10-dihydro-4H-benzo[d]pyrazolo[1,5-a][1,3]diazepine-3-carboxamide] | > 10000 nM | –
